Usually IC50 stands for the concentration needed to halve the response being measured.

The values that follow come from ChEMBL document CHEMBL5729382, “Inhibitors of cysteine proteases and methods of use thereof” (2022).

The experiment in a line: Evaluation of Antiviral Activity of Compounds Against Human Coronavirus (HCov) 229E: Compounds were assayed using standard methods against multiple coronaviral strains, including HCoV 229E and OC43 strains. […] The antiviral activity of compounds was calculated based on the protection of the virus-induced CPE at each concentration normalized by the virus control.

Molecules are shown by their SMILES.

Regarding `COc1cccc2[nH]c(C(=O)N[C@H](CC3CC3)C(=O)N[C@@]3(C#N)CC4CCC3[C@H]3C(=O)NC(=O)[C@@H]43)cc12` (single isomer, unassigned; isomer 1), the IC50 was above 30 µM. The same measure for `N#CC1(NC(=O)[C@@H](CC2CC2)NC(=O)OCc2ccccc2)C[C@H]2CC[C@@H]1[C@H]1C(=O)NC(=O)[C@@H]21` (single isomer, unassigned; isomer 1): above 30 µM.
